The subject of assay [1] is APC-resistant Haemophilus influenza. Kind of assay: MIC90, agar plate dilution method (NCCLS), Table 2. It is filed as cell-based. Conditions: for MIC90 Range: APC-resistant Haemophilus influenza., 10 isolates; for MIC90: Haemophilus. The method, then:
(§1) The MIC90 values for this test were determined by the agar plate dilution method according to the National Committee for Clinical Laboratory Standards (“NCCLS”).

The test system of assay [2] is GM-resistant P. aeruginosa. Nature of the assay: MIC90, agar plate dilution method (NCCLS), Table 2. Format: cell-based. As to conditions: 10 isolates; for MIC90: Pseudomonas aeruginosa. The method, then:
as §1

A further assay deals with GM-resistant S. aureus. Kind of assay: MIC90, agar plate dilution method (NCCLS), Table 2. Conditions: 10 isolates; for MIC90: Staphylococcus aureus. Format: cell-based. The protocol: as §1
In assay [3] the test system is OFLX-resistant Enterobacteriaceae. Nature of the assay: MIC90, agar plate dilution method (NCCLS), Table 2. It is filed as cell-based. The method, then:
as §1

In another assay the test system is OFLX-resistant S. aureus. Kind of assay: MIC90, agar plate dilution method (NCCLS), Table 2. As to conditions: 10 isolates; for MIC90: Staphylococcus aureus. It is filed as cell-based. The protocol:
as §1

In assay [4] the test system is PCG-resistant S. pneumoniae. Kind of assay: MIC90, agar plate dilution method (NCCLS), Table 2. It is filed as cell-based. As to conditions: 10 isolates; for MIC90: Streptococcus pneumoniae. The protocol: as §1
For assay [5], the system named is Methicillin-Resistant S. aureus Isolates. Kind of assay: In vitro anti-bacterial activity, fourth test, Table 5. Format: cell-based, Staphylococcus aureus. Conditions: Staphylococcus aureus, read-out: MIC90. The method, then:
In a fourth test, the anti-bacterial activity of the compound having Formula IV was tested against some methicillin-resistant S. aureus bacteria strains and compared to the anti-bacterial activity of three commercially available antibiotics: nadifloxacin (“NDFX”), ofloxacin (“OFLX”), and sparfloxacin (“SPFX”).

Assay [6] deals with S. aureus Clinical Isolates. Nature of the assay: In vitro activity against clinical isolates, sixth test, Table 7. It is filed as cell-based. As to conditions: Staphylococcus aureus, 49 isolates.
Assay [7] deals with S. pneumoniae Clinical Isolates. The assay is described as above. It is filed as cell-based. Conditions: 78 isolates.

This is an account of results in patent publication US8937062B2, “Compositions and methods for treating, reducing, ameliorating, or preventing infections caused by antibacterial drug-resistant bacteria” (Bausch & Lomb Incorporated, priority 2007, dated 2015).

In brackets after ≈: the same amount, converted by molar mass. Read-outs that look alike come from different tables or passages of the source.

Regarding `O=C(O)c1cn(C2CC2)c2cc(N3CCNCC3)c(F)cc2c1=O` [CPLX, ciprofloxacin], the “MIC90 Range” value in assay [1] is “≦0.06 μg/ml”; in assay [2] it was 0.13 to 32 µg/mL; in [3] (OFLX-resistant Enterobacteriaceae, 10 isolates), 4 to 32 µg/mL; in assay [4], 0.5 to 2 µg/mL. The MIC90 in assay [1] (read-out: MIC90 Geometric Mean) is at most 0.06 µg/mL; in assay [1] (read-out: MIC90 Value) it was at most 0.06 µg/mL; in assay [2] (read-out: MIC90 Geometric Mean), 1.87 µg/mL (≈ 5.64 µM); with GM-resistant S. aureus (read-out: MIC90 Geometric Mean), 26 µg/mL (≈ 78.5 µM); in assay [3] (read-out: MIC90 Geometric Mean) it was 10.6 µg/mL (≈ 32 µM); in the assay with OFLX-resistant S. aureus (read-out: MIC90 Geometric Mean), 147 µg/mL (≈ 444 µM).
`CC1CCc2c(N3CCC(O)CC3)c(F)cc3c(=O)c(C(=O)O)cn1c23` (centres unmarked) [NDFX, nadifloxacin]: the MIC90 in [5] (ATCC33591, Staphylococcus aureus (ATCC 33591)) was found to be 0.006 µg/mL (≈ 0.0166 µM); in [5] (ATCC33592, Staphylococcus aureus (ATCC 33592)) it was 0.05 µg/mL (≈ 0.139 µM); in assay [5] (ATCC33593, Staphylococcus aureus (ATCC 33593)), 0.024 µg/mL (≈ 0.0666 µM); in [5] (Staphylococcus aureus (No. 395)), 0.024 µg/mL (≈ 0.0666 µM); in assay [5] (Staphylococcus aureus (No. 415)) it was 0.1 µg/mL (≈ 0.277 µM); in [5] (Staphylococcus aureus (No. 419)), 0.39 µg/mL (≈ 1.08 µM). The MIC90 in assay [5] (Staphylococcus aureus (No. 420)) and in [5] (Staphylococcus aureus (No. 421)) was 0.78 µg/mL (≈ 2.16 µM) throughout.
Consider `C[C@H]1COc2c(N3CCN(C)CC3)c(F)cc3c(=O)c(C(=O)O)cn1c23` [LVFX, levofloxacin], for which the figures for the MIC90 in [6] and in [7] (Streptococcus pneumoniae) were 4 µg/mL (≈ 11.1 µM) and 1 µg/mL (≈ 2.77 µM), respectively. Besides, the “MIC90 Range” value in [7] fell in the range of 0.5 to 2 µg/mL.
For the molecule `O=C1CCN(c2c(F)cc3c(=O)c(C(=O)O)cn(C4CC4)c3c2Cl)CCN1` [VI], the “MIC90 Range” value in assay [1] was “≦0.06 μg/ml”; in assay [2], 0.5 to 64 µg/mL; in the assay with GM-resistant S. aureus, “≦0.006-4 μg/ml”; against OFLX-resistant S. aureus it was 0.25 to 8 µg/mL; in [4], 0.13 to 0.25 µg/mL. Besides, the MIC90 is at most 0.06 µg/mL in assay [1] (read-out: MIC90 Geometric Mean); at most 0.06 µg/mL in assay [1] (read-out: MIC90 Value); 6.96 µg/mL (≈ 17.7 µM) in assay [2] (read-out: MIC90 Geometric Mean); 32 µg/mL (≈ 81.3 µM) in [2] (read-out: MIC90 Value); 0.43 µg/mL (≈ 1.09 µM) with GM-resistant S. aureus (read-out: MIC90 Geometric Mean); 4 µg/mL (≈ 10.2 µM) in the assay with GM-resistant S. aureus (read-out: MIC90 Value). For the same molecule, the MIC90 in [3] (read-out: MIC90 Geometric Mean) was 32 µg/mL (≈ 81.3 µM); in [3] (read-out: MIC90 Value) it was 32 µg/mL (≈ 81.3 µM); in the assay on OFLX-resistant S. aureus (read-out: MIC90 Geometric Mean), 1.52 µg/mL (≈ 3.86 µM); in the assay on OFLX-resistant S. aureus (read-out: MIC90 Value) it was 4 µg/mL (≈ 10.2 µM); in assay [4] (read-out: MIC90 Geometric Mean) it was 0.14 µg/mL (≈ 0.356 µM); in assay [4] (read-out: MIC90 Value) it was 0.13 µg/mL (≈ 0.33 µM).
